Reference: ChEMBL document CHEMBL1275576, “In vitro activity of tomopenem (CS-023/RO4908463) against anaerobic bacteria” (Antimicrob Agents Chemother, 2009)

What was measured:
Type in all cases: functional
Bacteroides ovatus = experiment: Antimicrobial activity against Bacteroides ovatus ATCC 8483 by agar dilution method in presence of 5% laked sheep blood
[1] = tested on: Lactiplantibacillus plantarum; experiment: Antimicrobial activity against Lactobacillus plantarum JCM 1149 by agar dilution method in presence of 5% laked sheep blood
[2] = tested on: Bacteroides thetaiotaomicron; experiment: Antimicrobial activity against Bacteroides thetaiotaomicron ATCC 29741 by agar dilution method in presence of 5% laked sheep blood
Hoylesella oralis = experiment: Antimicrobial activity against Prevotella oralis ATCC 33269 by agar dilution method in presence of 5% laked sheep blood
[3] = Antimicrobial activity against Veillonella dispar ATCC 17748 by agar dilution method in presence of 5% laked sheep blood
Peptoniphilus indolicus = experiment: Antimicrobial activity against Peptoniphilus indolicus GAI 0915 by agar dilution method in presence of 5% laked sheep blood
Bacteroides uniformis = experiment: Antimicrobial activity against Bacteroides uniformis ATCC 8492 by agar dilution method in presence of 5% laked sheep blood
Bacteroides fragilis [4] = experiment: Antimicrobial activity against carbapenemase-producing Bacteroides fragilis GAI 30144 by agar dilution method in presence of 5% laked sheep blood
Gemella morbillorum = experiment: Antimicrobial activity against Gemella morbillorum ATCC 27824 by agar dilution method in presence of 5% laked sheep blood
Capnocytophaga ochracea = experiment: Antimicrobial activity against Capnocytophaga ochracea GAI 5586 by agar dilution method in presence of 5% laked sheep blood
[5] = tested on: Streptococcus constellatus; experiment: Antimicrobial activity against Streptococcus constellatus ATCC 27923 by agar dilution method in presence of 5% laked sheep blood
Bifidobacterium bifidum = experiment: Antimicrobial activity against Bifidobacterium bifidum JCM 1255 by agar dilution method in presence of 5% laked sheep blood
Veillonella parvula = experiment: Antimicrobial activity against Veillonella parvula ATCC 10790 by agar dilution method in presence of 5% laked sheep blood
Prevotella intermedia = experiment: Antimicrobial activity against Prevotella intermedia ATCC 25611 by agar dilution method in presence of 5% laked sheep blood
[6] = tested on: Propionibacterium granulosum; experiment: Antimicrobial activity against Propionibacterium granulosum ATCC 25564 by agar dilution method in presence of 5% laked sheep blood; conditions: Cutibacterium granulosum
Prevotella denticola = experiment: Antimicrobial activity against Prevotella denticola GAI 5490 by agar dilution method in presence of 5% laked sheep blood
Campylobacter gracilis = experiment: Antimicrobial activity against Campylobacter gracilis JCM 8538 by agar dilution method in presence of 5% laked sheep blood
Thomasclavelia ramosa = experiment: Antimicrobial activity against Clostridium ramosum ATCC 25582 by agar dilution method in presence of 5% laked sheep blood
Fusobacterium varium = experiment: Antimicrobial activity against Fusobacterium varium ATCC 8501 by agar dilution method in presence of 5% laked sheep blood
[7] = tested on: Peptostreptococcus anaerobius; experiment: Antimicrobial activity against Peptostreptococcus anaerobius ATCC 27337 by agar dilution method in presence of 5% laked sheep blood
Lacticaseibacillus casei = experiment: Antimicrobial activity against Lactobacillus casei subsp. casei JCM 1134 by agar dilution method in presence of 5% laked sheep blood
Prevotella bivia = experiment: Antimicrobial activity against Prevotella bivia ATCC 29303 by agar dilution method in presence of 5% laked sheep blood; conditions: DSM 20514
[8] = tested on: Desulfovibrio desulfuricans; experiment: Antimicrobial activity against Desulfovibrio desulfuricans ATCC 29577 by agar dilution method in presence of 5% laked sheep blood
[9] = tested on: Paeniclostridium sordellii; experiment: Antimicrobial activity against Clostridium sordellii ATCC 9714 by agar dilution method in presence of 5% laked sheep blood; conditions: Paraclostridium sordellii
Bifidobacterium breve = experiment: Antimicrobial activity against Bifidobacterium breve ATCC 15700 by agar dilution method in presence of 5% laked sheep blood
[10] = tested on: Staphylococcus saccharolyticus; experiment: Antimicrobial activity against Staphylococcus saccharolyticus ATCC 14953 by agar dilution method in presence of 5% laked sheep blood
Clostridioides difficile = experiment: Antimicrobial activity against Clostridium difficile GAI 10029 by agar dilution method in presence of 5% laked sheep blood
Bacteroides fragilis [11] = experiment: Antimicrobial activity against Bacteroides fragilis GAI 5562 by agar dilution method in presence of 5% laked sheep blood
[12] = tested on: Streptococcus intermedius; experiment: Antimicrobial activity against Streptococcus intermedius ATCC 27335 by agar dilution method in presence of 5% laked sheep blood
Bilophila wadsworthia = experiment: Antimicrobial activity against Bilophila wadsworthia WAL 7959 by agar dilution method in presence of 5% laked sheep blood
[13] = tested on: Lactobacillus acidophilus; experiment: Antimicrobial activity against Lactobacillus acidophilus JCM 1132 by agar dilution method in presence of 5% laked sheep blood
[14] = tested on: Limosilactobacillus fermentum; experiment: Antimicrobial activity against Lactobacillus fermentum JCM 1173 by agar dilution method in presence of 5% laked sheep blood
Eggerthella lenta = experiment: Antimicrobial activity against Eggerthella lenta ATCC 25559 by agar dilution method in presence of 5% laked sheep blood
Cutibacterium acnes = experiment: Antimicrobial activity against Propionibacterium acnes ATCC 11828 by agar dilution method in presence of 5% laked sheep blood
Lactobacillus salivarius = experiment: Antimicrobial activity against Lactobacillus salivarius subsp. salivarius JCM 1231 by agar dilution method in presence of 5% laked sheep blood; conditions: Ligilactobacillus salivarius
Anaerococcus prevotii = experiment: Antimicrobial activity against Anaerococcus prevotii ATCC 9321 by agar dilution method in presence of 5% laked sheep blood
[15] = tested on: Fusobacterium necrophorum; experiment: Antimicrobial activity against Fusobacterium necrophorum ATCC 25286 by agar dilution method in presence of 5% laked sheep blood
[16] = tested on: Campylobacter ureolyticus; experiment: Antimicrobial activity against Bacteroides ureolyticus NCTC 10941 by agar dilution method in presence of 5% laked sheep blood
[17] = Antimicrobial activity against Bifidobacterium longum subsp. longum ATCC 15707 by agar dilution method in presence of 5% laked sheep blood
Atopobium parvulum = experiment: Antimicrobial activity against Atopobium parvulum VPI 0546 by agar dilution method in presence of 5% laked sheep blood; conditions: Lancefieldella parvula
[18] = Antimicrobial activity against Bifidobacterium adolescentis ATCC 15703 by agar dilution method in presence of 5% laked sheep blood
Schaalia odontolytica = experiment: Antimicrobial activity against Actinomyces odontolyticus GAI 91002 by agar dilution method in presence of 5% laked sheep blood
[19] = tested on: Peptoniphilus asaccharolyticus; experiment: Antimicrobial activity against Peptoniphilus asaccharolyticus WAL 3218 by agar dilution method in presence of 5% laked sheep blood
Bacteroides fragilis [20] = experiment: Antimicrobial activity against carbapenemase-producing Bacteroides fragilis GAI 30079 by agar dilution method in presence of 5% laked sheep blood
[21] = Antimicrobial activity against Parabacteroides distasonis ATCC 8503 by agar dilution method in presence of 5% laked sheep blood
Clostridium septicum = experiment: Antimicrobial activity against Clostridium septicum ATCC 12464 by agar dilution method in presence of 5% laked sheep blood

CC(=N)N1CC[C@H](SC2=C(C(=O)O)N3C(=O)[C@H]([C@@H](C)O)[C@H]3C2)C1
MIC (Bacteroides ovatus): 0.5 µg/mL | MIC [1]: 0.03 µg/mL | MIC [2]: 0.5 µg/mL | MIC (Hoylesella oralis): 0.06 µg/mL | MIC [3]: 0.06 µg/mL | MIC (Peptoniphilus indolicus): 0.125 µg/mL | MIC (Bacteroides uniformis): 0.25 µg/mL | MIC (Bacteroides fragilis [4]): > 128 µg/mL | MIC (Gemella morbillorum): ≤ 0.015 µg/mL | MIC (Capnocytophaga ochracea): 0.125 µg/mL | MIC [5]: 0.25 µg/mL | MIC (Bifidobacterium bifidum): 0.06 µg/mL | MIC (Veillonella parvula): 0.125 µg/mL | MIC (Prevotella intermedia): 0.06 µg/mL | MIC [6]: 0.125 µg/mL | MIC (Prevotella denticola): 0.06 µg/mL | MIC (Campylobacter gracilis): 0.25 µg/mL | MIC (Thomasclavelia ramosa): 0.25 µg/mL | MIC (Fusobacterium varium): 4 µg/mL | MIC [7]: 0.125 µg/mL | MIC (Lacticaseibacillus casei): 0.5 µg/mL | MIC (Prevotella bivia): 0.5 µg/mL | MIC [8]: 0.5 µg/mL | MIC [9]: 0.03 µg/mL | MIC (Bifidobacterium breve): 0.5 µg/mL | MIC [10]: 0.03 µg/mL | MIC (Clostridioides difficile): 4 µg/mL | MIC (Bacteroides fragilis [11]): 0.25 µg/mL | MIC [12]: 0.25 µg/mL | MIC (Bilophila wadsworthia): 0.5 µg/mL | MIC [13]: 0.25 µg/mL | MIC [14]: 0.03 µg/mL | MIC (Eggerthella lenta): 2 µg/mL | MIC (Cutibacterium acnes): 0.125 µg/mL | MIC (Lactobacillus salivarius): 0.25 µg/mL | MIC (Anaerococcus prevotii): 0.125 µg/mL | MIC [15]: 0.125 µg/mL | MIC [16]: 0.25 µg/mL | MIC [17]: 1 µg/mL | MIC (Atopobium parvulum): 0.25 µg/mL | MIC [18]: 0.125 µg/mL | MIC (Schaalia odontolytica): 0.5 µg/mL | MIC [19]: 0.25 µg/mL | MIC (Bacteroides fragilis [20]): > 128 µg/mL | MIC [21]: 1 µg/mL | MIC (Clostridium septicum): ≤ 0.015 µg/mL

C[C@@H](O)[C@H]1C(=O)N2C(C(=O)O)=C(S[C@@H]3CN[C@H](C(=O)N(C)C)C3)[C@H](C)[C@H]12 [MEROPENEM]
MIC (Bacteroides ovatus): 0.25 µg/mL | MIC [1]: 0.25 µg/mL | MIC [2]: 0.25 µg/mL | MIC (Hoylesella oralis): 0.03 µg/mL | MIC [3]: 0.03 µg/mL | MIC (Peptoniphilus indolicus): ≤ 0.015 µg/mL | MIC (Bacteroides uniformis): 0.125 µg/mL | MIC (Bacteroides fragilis [4]): > 128 µg/mL | MIC (Gemella morbillorum): ≤ 0.015 µg/mL | MIC (Capnocytophaga ochracea): 0.03 µg/mL | MIC [5]: 0.05 µg/mL | MIC (Bifidobacterium bifidum): 0.06 µg/mL | MIC (Veillonella parvula): 0.03 µg/mL | MIC (Prevotella intermedia): 0.06 µg/mL | MIC [6]: 1 µg/mL | MIC (Prevotella denticola): 0.06 µg/mL | MIC (Campylobacter gracilis): 0.06 µg/mL | MIC (Thomasclavelia ramosa): 1 µg/mL | MIC (Fusobacterium varium): 0.25 µg/mL | MIC [7]: 0.5 µg/mL | MIC (Lacticaseibacillus casei): 2 µg/mL | MIC (Prevotella bivia): 0.25 µg/mL | MIC [8]: 0.125 µg/mL | MIC [9]: 0.03 µg/mL | MIC (Bifidobacterium breve): 1 µg/mL | MIC [10]: 0.125 µg/mL | MIC (Clostridioides difficile): 4 µg/mL | MIC (Bacteroides fragilis [11]): 0.125 µg/mL | MIC [12]: 0.25 µg/mL | MIC (Bilophila wadsworthia): 0.03 µg/mL | MIC [13]: 0.25 µg/mL | MIC [14]: 0.25 µg/mL | MIC (Eggerthella lenta): 1 µg/mL | MIC (Cutibacterium acnes): 2 µg/mL | MIC (Lactobacillus salivarius): 1 µg/mL | MIC (Anaerococcus prevotii): 0.25 µg/mL | MIC [15]: ≤ 0.015 µg/mL | MIC [16]: ≤ 0.015 µg/mL | MIC [17]: 0.5 µg/mL | MIC (Atopobium parvulum): 0.5 µg/mL | MIC [18]: 0.125 µg/mL | MIC (Schaalia odontolytica): 0.5 µg/mL | MIC [19]: ≤ 0.015 µg/mL | MIC (Bacteroides fragilis [20]): > 128 µg/mL | MIC [21]: 0.125 µg/mL | MIC (Clostridium septicum): 0.06 µg/mL

CCC[C@@H]1C[C@@H](C(=O)N[C@@H]([C@H]2O[C@H](SC)[C@H](O)[C@@H](O)[C@H]2O)[C@H](C)Cl)N(C)C1 [CLINDAMYCIN]
MIC (Bacteroides ovatus): 0.5 µg/mL | MIC [1]: 0.25 µg/mL | MIC [2]: 4 µg/mL | MIC (Hoylesella oralis): ≤ 0.03 µg/mL | MIC [3]: ≤ 0.03 µg/mL | MIC (Peptoniphilus indolicus): 32 µg/mL | MIC (Bacteroides uniformis): ≤ 0.03 µg/mL | MIC (Bacteroides fragilis [4]): 2 µg/mL | MIC (Gemella morbillorum): 0.06 µg/mL | MIC (Capnocytophaga ochracea): ≤ 0.03 µg/mL | MIC [5]: 0.25 µg/mL | MIC (Bifidobacterium bifidum): ≤ 0.03 µg/mL | MIC (Veillonella parvula): ≤ 0.03 µg/mL | MIC (Prevotella intermedia): ≤ 0.03 µg/mL | MIC [6]: ≤ 0.03 µg/mL | MIC (Prevotella denticola): ≤ 0.03 µg/mL | MIC (Campylobacter gracilis): 0.125 µg/mL | MIC (Thomasclavelia ramosa): 8 µg/mL | MIC (Fusobacterium varium): 4 µg/mL | MIC [7]: 0.25 µg/mL | MIC (Lacticaseibacillus casei): 2 µg/mL | MIC (Prevotella bivia): ≤ 0.03 µg/mL | MIC [8]: 0.5 µg/mL | MIC [9]: 1 µg/mL | MIC (Bifidobacterium breve): ≤ 0.03 µg/mL | MIC [10]: 0.125 µg/mL | MIC (Clostridioides difficile): > 128 µg/mL | MIC (Bacteroides fragilis [11]): 0.5 µg/mL | MIC [12]: 0.25 µg/mL | MIC (Bilophila wadsworthia): 0.5 µg/mL | MIC [13]: 1 µg/mL | MIC [14]: ≤ 0.03 µg/mL | MIC (Eggerthella lenta): 0.25 µg/mL | MIC (Cutibacterium acnes): 0.125 µg/mL | MIC (Lactobacillus salivarius): 0.06 µg/mL | MIC (Anaerococcus prevotii): 0.125 µg/mL | MIC [15]: ≤ 0.03 µg/mL | MIC [16]: 0.25 µg/mL | MIC [17]: ≤ 0.03 µg/mL | MIC (Atopobium parvulum): 1 µg/mL | MIC [18]: ≤ 0.03 µg/mL | MIC (Schaalia odontolytica): 0.25 µg/mL | MIC [19]: > 128 µg/mL | MIC (Bacteroides fragilis [20]): > 128 µg/mL | MIC [21]: 0.06 µg/mL | MIC (Clostridium septicum): ≤ 0.03 µg/mL
